In data set [1] the test system is Methicillin-susceptible S. aureus UC® 9213. As to the kind of experiment: Minimum inhibitory concentration (MIC) by agar dilution, S. aureus. Conditions: Staphylococcus aureus, UC9213, lowest concentration that inhibits visible growth. The class given is cell-based. The source says:
(§1) The oxazolidinone antibacterial agents of this invention have useful activity against a variety of organisms. The in vitro activity of compounds of this invention can be assessed by standard testing procedures such as the determination of minimum inhibitory concentration (MIC) by agar dilution as described in “Approved Standard. Methods for Dilution Antimicrobial Susceptibility Tests for Bacteria That Grow Aerobically”, 3rd. ed., published 1993 by the National Committee for Clinical Laboratory Standards, Villanova, Pa., USA. The activity of compounds of this invention against Staphylococcus aureus, Staphylococcus epidermidis, Streptococcus pneumoniae, Enterococcus faecalis, Moraxella catarrhalis and H. influenzae is shown in Table 1. No. 1 is Methicillin-susceptible S. aureus UC® 9213. No. 2 is Moraxella catarrhalis UC® 30610. Minimum inhibitory concentration: lowest concentration of drug (μg/mL) that inhibits visible growth of the organism.

Data set [2] relates to Moraxella catarrhalis UC® 30610. As to the kind of experiment: Minimum inhibitory concentration (MIC) by agar dilution, Moraxella catarrhalis. The class given is cell-based. Particulars: UC30610, lowest concentration that inhibits visible growth, read-out: Minimum Inhibitory Concentration M.CAT.
Description: as §1
Background: In agar dilution, organisms are placed on agar that contains the substance at set levels.

In brackets after ≈: the same amount, converted by molar mass.

Our source for the MIC and melting point values is patent US6387896B1, “Bicyclic oxazolidinones as antibacterial agents” (Pharmacia & Upjohn Co., priority 1999, dated 2002).

On to `CC(=O)NCC1CN(c2ccc3c(c2)CC(C)S3)C(=O)O1` (stereo in doubt) [Example 20, N-{[(5R)-3-(2(+)-methyl-2,3-dihydro-1-benzothien-5-yl)-2-oxo-1,3-oxazolidin-5-yl]methyl}acetamide], for which the MIC in data set [1] worked out at 4 µg/mL (≈ 13.1 µM); in data set [2], 16 µg/mL (≈ 52.2 µM).

As a reminder, the melting point is the temperature of the solid-liquid transition. Take `CC(=O)NC[C@H]1CN(c2ccc3c(c2)CC(C)N3CCF)C(=O)O1` (stereo partly drawn) [Example 1, N-({(5S)-3-[1-(2-Fluoroethyl)-2-methyl-2,3-dihydro-1H-indol-5-yl]-2-oxo-1,3-oxazolidin-5-yl}methyl)acetamide]: the melting point was in the range of 127 to 130 °C.

For `CC(=O)NC[C@H]1CN(c2ccc3c(c2)CC(C)N3C(=O)CO)C(=O)O1` (stereo partly drawn) [Example 2, N-{[(5S)-3-(1-Glycoloyl-2-methyl-2,3-dihydro-1H-indol-5-yl)-2-oxo-1,3-oxazolidin-5-yl]methyl}acetamide], the melting point was 130 to 133 °C.

As to `CC(=O)NC[C@H]1CN(c2ccc3c(c2)C[C@@H](C)N3C(=O)CO)C(=O)O1` [Example 3, N-({(5S)-3-[(2R)-1-Glycoloyl-2-methyl-2,3-dihydro-1H-indol-5-yl]-2-oxo-1,3-oxazolidin-5-yl}methyl)acetamide], the MIC in data set [1] and in data set [2] was 4 µg/mL (≈ 11.5 µM) each time.

For `CC(=O)NC[C@H]1CN(c2ccc3c(c2)C[C@@H](C)N3C=O)C(=O)O1` [Example 4, N-({(5S)-3-[(2R)-1-Formyl-2-methyl-2,3-dihydro-1H-indol-5-yl]-2-oxo-1,3-oxazolidin-5-yl}methyl)acetamide], the melting point lay within 158 to 159 °C. Besides, the MIC in data set [1] is 1 µg/mL (≈ 3.15 µM). For the same molecule, the MIC in data set [2] is 4 µg/mL (≈ 12.6 µM).

For the molecule `CCC(=O)NC[C@H]1CN(c2ccc3c(c2)C[C@@H](C)N3C=O)C(=O)O1` [Example 5, N-({(5S)-3-[(2R)-1-Formyl-2-methyl-2,3-dihydro-1H-indol-5-yl]-2-oxo-1,3-oxazolidin-5-yl}methyl)propanamide], the melting point lay in the range of 118 to 119 °C. In addition, in data set [1], the MIC is 2 µg/mL (≈ 6.04 µM). Also, the MIC in data set [2] came to 4 µg/mL (≈ 12.1 µM).

The molecule `CC(=S)NC[C@H]1CN(c2ccc3c(c2)C[C@@H](C)N3C=O)C(=O)O1` [Example 6, N-({(5S)-3-[(2R)-1-Formyl-2-methyl-2,3-dihydro-1H-indol-5-yl]-2-oxo-1,3-oxazolidin-5-yl}methyl)ethanethioamide] gave a melting point of 95 to 96 °C. Also, in data set [1], the MIC is less than 0.5 µg/mL. The MIC in data set [2] was determined as 1 µg/mL (≈ 3 µM).

In turn, `COCC(=O)N1c2ccc(N3C[C@H](CNC(C)=O)OC3=O)cc2C[C@H]1C` [Example 7, N-({(5S)-3-[(2R)-1-(2-Methoxyacetyl)-2-methyl-2,3-dihydro-1H-indol-5-yl]-2-oxo-1,3-oxazolidin-5-yl}methyl)acetamide] showed a melting point of 174 to 175 °C. The MIC in data set [1] was determined as 4 µg/mL (≈ 11.1 µM). Further, the MIC in data set [2] worked out at 8 µg/mL (≈ 22.1 µM).

`CC(=O)NC[C@H]1CN(c2ccc3c(c2)C[C@@H](C)N3C(=O)COC(C)=O)C(=O)O1` [Example 8, 2-((2R)-5-{(5S)-5-[(Acetylamino)methyl]-2-oxo-1,3-oxazolidin-3-yl}-2-methyl-2,3-dihydro-1H-indol-1-yl)-2-oxoethyl acetate] displayed a melting point of 186 to 187 °C. Besides, in data set [1], the MIC was 8 µg/mL. For the same molecule, in data set [2], the MIC is 16 µg/mL.

`CC(=O)NC[C@H]1CN(c2ccc3c(c2)C[C@@H](C)N3C(C)=O)C(=O)O1` [Example 9, N-({(5S)-3-[(2R)-1-Acetyl-2-methyl-2,3-dihydro-1H-indol-5-yl]-2-oxo-1,3-oxazolidin-5-yl}methyl)acetamide]: the melting point lay within 184 to 185 °C. The same molecule gave an MIC in data set [1] of 2 µg/mL (≈ 6.04 µM). Moreover, the MIC in data set [2] was 8 µg/mL (≈ 24.1 µM).

For the molecule `CNC(=S)N1c2ccc(N3C[C@H](CNC(C)=O)OC3=O)cc2C[C@H]1C` [Example 10, N-[((5S)-3-{(2R)-2-Methyl-1-[(methylamino)carbothioyl]-2,3-dihydro-1H-indol-5-yl}-2-oxo-1,3-oxazolidin-5-yl)methyl]acetamide], the melting point lay in the range of 109 to 111 °C. In data set [1], the MIC is 4 µg/mL (≈ 11 µM). The MIC in data set [2] turned out to be 8 µg/mL (≈ 22.1 µM).

For `CC(=O)OCC(=O)N1c2ccc(N3C[C@H](CNC(C)=S)OC3=O)cc2C[C@H]1C` [Example 11, 2-((2R)-5-{(5S)-5-[(Ethanethioylamino)methyl]-2-oxo-1,3-oxazolidin-3-yl}-2-methyl-2,3-dihydro-1H-indol-1-yl)-2-oxoethyl acetate], the MIC came to 1 µg/mL in data set [1] and 4 µg/mL in data set [2].

Take `CC(=S)NC[C@H]1CN(c2ccc3c(c2)C[C@@H](C)N3C(=O)CO)C(=O)O1` [Example 12, N-({(5S)-3-[(2R)-1-Glycoloyl-2-methyl-2,3-dihydro-1H-indol-5-yl]-2-oxo-1,3-oxazolidin-5-yl}methyl)ethanethioamide]: the melting point was in the range of 115 to 117 °C. In data set [1], this molecule gave an MIC of less than 0.5 µg/mL. In addition, the MIC in data set [2] worked out at 1 µg/mL (≈ 2.75 µM).

`CC(=O)NC[C@H]1CN(c2ccc3c(c2)CCC(C)N3C=O)C(=O)O1` (stereo partly drawn) [Example 13, N-{[(5S)-3-(1-Formyl-2-methyl-1,2,3,4-tetrahydro-6-quinolinyl)-2-oxo-1,3-oxazolidin-5-yl]methyl}acetamide]: the melting point is 85 to 87 °C.

Molecule `CC(=O)NC[C@H]1CN(c2ccc3c(c2)CC[C@@H](C)N3C=O)C(=O)O1` [Example 14, N-({(5S)-3-[(2R)-1-Formyl-2-methyl-1,2,3,4-tetrahydro-6-quinolinyl]-2-oxo-1,3-oxazolidin-5-yl}methyl)acetamide] had a melting point of 89 to 91 °C. In addition, the MIC in data set [1] came out at 2 µg/mL (≈ 6.04 µM). Also, the MIC in data set [2] stood at 4 µg/mL (≈ 12.1 µM).

`CC(=S)NC[C@H]1CN(c2ccc3c(c2)CC[C@@H](C)N3C=O)C(=O)O1` [Example 15, N-({(5S)-3-[(2R)-1-Formyl-2-methyl-1,2,3,4-tetrahydro-6-quinolinyl]-2-oxo-1,3-oxazolidin-5-yl}methyl)ethanethioamide] came in with a melting point of 184 to 186 °C. Moreover, the MIC in data set [1] was less than 0.5 µg/mL. Further, the MIC in data set [2] stood at 1 µg/mL (≈ 2.88 µM).

Take `CC(=O)NC[C@H]1CN(c2ccc3c(c2)OCC(C)N3C=O)C(=O)O1` (stereo partly drawn) [Example 16, N-{[(5S)-3-(4-Formyl-3-methyl-3,4-dihydro-2H-1,4-benzoxazin-7-yl)-2-oxo-1,3-oxazolidin-5-yl]methyl}acetamide]: the melting point was 118 to 121 °C (dec.).

In turn, `CC(=O)NC[C@H]1CN(c2ccc3c(c2)OC[C@@H](C)N3C=O)C(=O)O1` [Example 17, N-({(5S)-3-[(3R)-4-Formyl-3-methyl-3,4-dihydro-2H-1,4-benzoxazin-7-yl]-2-oxo-1,3-oxazolidin-5-yl}methyl)acetamide] yielded a melting point of 148 to 151 °C. The MIC in data set [1] came to 4 µg/mL (≈ 12 µM). In addition, the MIC in data set [2] is 8 µg/mL (≈ 24 µM).

`CC(=S)NC[C@H]1CN(c2ccc3c(c2)OC[C@@H](C)N3C=O)C(=O)O1` [Example 18, N-({(5S)-3-[(3R)-4-Formyl-3-methyl-3,4-dihydro-2H-1,4-benzoxazin-7yl]-2-oxo-1,3-oxazolidin-5-yl}methyl)ethanethioamide]: the melting point fell in the range of 95 to 98 °C. In data set [1], this molecule yielded an MIC of less than 0.5 µg/mL. For the same molecule, the MIC in data set [2] came to 2 µg/mL (≈ 5.72 µM).

For `CC(=O)NC[C@H]1CN(c2ccc3c(c2)CC(CF)N3C=O)C(=O)O1` (stereo partly drawn) [Example 19, (S)-N-[[3-[1-Formyl-2-(fluoromethyl)-5-indolinyl]-2-oxo-5-oxazolidinyl]methyl]acetamide], the melting point fell in the range of 132 to 136 °C. For the same molecule, the MIC in data set [1] turned out to be 4 µg/mL (≈ 11.9 µM). Also, the MIC in data set [2] is 16 µg/mL (≈ 47.7 µM).

`CC(=S)NC[C@H]1CN(c2ccc3c(c2)CC(C(C)(C)C)N3C=O)C(=O)O1` (stereo partly drawn) [Example 21, N-[[(5S)-3-[2-(1,1-dimethylethyl)-1-formyl-2,3-dihydro-1H-indol-5-yl]-2-oxo-5-oxazolidinyl]methyl]ethanethioamide] gave a melting point of 219 to 221 °C. Further, the MIC in data set [1] was found to be 2 µg/mL (≈ 5.33 µM). Further, in data set [2], the MIC was found to be 4 µg/mL (≈ 10.7 µM).

On to `CC(=O)NC[C@H]1CN(c2ccc(N3CCN(C(=O)CO)CC3)c(F)c2)C(=O)O1` [eperezolid, reference compound], for which the results for the MIC in data set [1] and in data set [2] were 4 µg/mL (≈ 10.1 µM) and 8 µg/mL (≈ 20.3 µM), respectively.

Take `CC(=O)NC[C@H]1CN(c2ccc(N3CCOCC3)c(F)c2)C(=O)O1` [linezolid, reference compound]: the MIC in data set [1] was 4 µg/mL (≈ 11.9 µM); in data set [2] it was 8 µg/mL (≈ 23.7 µM).

Turning to `CN[C@H](CC(C)C)C(=O)N[C@H]1C(=O)N[C@@H](CC(N)=O)C(=O)N[C@H]2C(=O)N[C@H]3C(=O)N[C@H](C(=O)N[C@H](C(=O)O)c4cc(O)cc(O)c4-c4cc3ccc4O)[C@H](O)c3ccc(c(Cl)c3)Oc3cc2cc(c3O[C@@H]2O[C@H](CO)[C@@H](O)[C@H](O)[C@H]2O[C@H]2C[C@](C)(N)[C@H](O)[C@H](C)O2)Oc2ccc(cc2Cl)[C@H]1O` [vancomycin, reference compound], the values for the MIC in data set [1] and in data set [2] were 1 µg/mL (≈ 0.69 µM) and more than 32 µg/mL, respectively.
